Key:
A549 [1] = assay: Inhibition ratio against A-549 cancer cell growth at a concentration of 10e-8 mol/L; assay type: functional, Homo sapiens
A549 [2] = assay: Inhibition ratio against A-549 cancer cell growth at a concentration of 10e-7 mol/L; assay type: functional, Homo sapiens
P388 [3] = assay: Inhibition ratio against P-388 cancer cell growth at a concentration of 10e-5 mol/L; assay type: functional, Mus musculus
A549 [4] = assay: Inhibition ratio against A-549 cancer cell growth at a concentration of 10e-5 mol/L; assay type: functional, Homo sapiens
P388 [5] = assay: Inhibition ratio against P-388 cancer cell growth at a concentration of 10e-4 mol/L; assay type: functional, Mus musculus
P388 [6] = assay: Inhibition ratio against P-388 cancer cell growth at a concentration of 10e-7 mol/L; assay type: functional, Mus musculus
A549 [7] = assay: Inhibition ratio against A-549 cancer cell growth at a concentration of 10e-6 mol/L; assay type: functional, Homo sapiens
A549 [8] = assay: Inhibition ratio against A-549 cancer cell growth at a concentration of 10e-4 mol/L; assay type: functional, Homo sapiens
P388 [9] = assay: Inhibition ratio against P-388 cancer cell growth at a concentration of 10e-6 mol/L; assay type: functional, Mus musculus
P388 [10] = assay: Inhibition ratio against P-388 cancer cell growth at a concentration of 10e-8 mol/L; assay type: functional, Mus musculus

SMILES | Ratio (A549 [1]) | Ratio (A549 [2]) | Ratio (P388 [3]) | Ratio (A549 [4]) | Ratio (P388 [5]) | Ratio (P388 [6]) | Ratio (A549 [7]) | Ratio (A549 [8]) | Ratio (P388 [9]) | Ratio (P388 [10])
COc1ccc(C=C2c3ccccc3C(=O)c3ccccc32)cc1 | 84.8 | 85.4 | 72.5 | 84.7 | 76.7 | 64.3 | 87 | 90 | 76.5 | 75.5
Cc1ccccc1C=C1c2ccccc2C(=O)c2ccccc21 | 5.7 | 0 | 42.4 | 84.8 | 84.1 | 8 | 18.5 | 90.9 | 24.9 | 13.1
O=C1c2ccccc2C(=Cc2ccc(F)cc2)c2ccccc21 | 49.2 | 18.5 | 31.4 | 88.2 | 83.3 | 10.3 | 56.5 | 96.8 | 18.4 | 5.2
O=C1c2ccccc2C(=Cc2cccc(Cl)c2)c2ccccc21 | 12.5 | 5.7 | 39.4 | 92 | 89.2 | 19.3 | 62.9 | 97.1 | 11.9 | 10.9
Cc1cccc(C=C2c3ccccc3C(=O)c3ccccc32)c1 | 0 | 0 | 7.2 | 18.2 | 53.3 | 0 | 0 | 93 | 0 | 0
O=C1c2ccccc2C(=Cc2cccc([N+](=O)[O-])c2)c2ccccc21 | 13.2 | 7.7 | 55.8 | 91.8 | 89.8 | 22.1 | 12.4 | 96 | 23.9 | 30.7
O=C1c2ccccc2C(=Cc2ccc(O)cc2)c2ccccc21 | 60 | 88.7 | 72 | 87 | 100 | 27.1 | 87.2 | 92.9 | 41.6 | 42.8
O=C1c2ccccc2C(=Cc2ccccc2O)c2ccccc21 | 85.2 | 83 | 88.2 | 94.8 | 95.6 | 44.9 | 89.3 | 96.3 | 65.8 | 38.5
O=C1c2ccccc2C(=Cc2ccc(Cl)cc2)c2ccccc21 | 41.7 | 33.6 | 36 | 87.3 | 70 | 2.8 | 41.9 | 96 | 3.9 | 4.4
COc1ccc(C=C2c3ccccc3C(=O)c3ccccc32)cc1OC | 81.7 | 90.6 | 80.2 | 92.8 | 95.7 | 53.6 | 87 | 95.7 | 56 | 50.9
COc1ccccc1C=C1c2ccccc2C(=O)c2ccccc21 | 66.3 | 86.8 | 76.1 | 81.7 | 82.2 | 47 | 85.7 | 89.3 | 55.4 | 32.7
COc1cccc(C=C2c3ccccc3C(=O)c3ccccc32)c1 | 6.2 | 38.1 | 48.2 | 92.5 | 96 | 7.1 | 25.1 | 95.8 | 27.2 | 1
O=C1c2ccccc2C(=Cc2ccccc2)c2ccccc21 | 4.4 | 1 | 56.2 | 79.9 | 97.8 | 0 | 9.8 | 95.4 | 17.8 | 2.7
Cc1ccc(C=C2c3ccccc3C(=O)c3ccccc32)cc1 | 84.7 | 92.7 | 42.4 | 91.8 | 69 | 49.3 | 90 | 95.2 | 48.6 | 56.5
O=C1c2ccccc2C(=Cc2ccccc2Cl)c2ccccc21 | 5.9 | 6 | 23.7 | 53 | 58.4 | 0 | 0.3 | 89.9 | 0 | 0
